In brackets after ≈: the same amount, converted by molar mass. Like-named read-outs stand apart in the source and are kept apart here. Ends that are not written are not given here. Peptide text beside a SMILES is read from it.
Tests used:
P. aeruginosa ATCC 9027 = assay type: cell-based, Pseudomonas aeruginosa; conditions: for IC50: MHB, 37°C, resazurin
Description: (§1) To detect antimicrobial activity of the BSF AMPs, the peptide library underwent screening against a panel of microorganisms, consisting of S. aureus ATCC 6538, E. coli ATCC 8739, P. aeruginosa ATCC 9027, C. albicans B59630, and A. fumigatus B42928. Serial dilutions of the peptides were prepared from the DMSO stock solutions in sterile demineralized water in 96-well plates using an automated liquid-handling workstation (Beckman Coulter Biomek 3000) in end volumes of 10 μL. The final in-plate concentration of DMSO was <1%. Peptide concentrations ranged from 64 μM to 0.25 μM for the first evaluation, and from 32 μM to 0.016 μM for the independent repeat. As references, doxycycline (Sigma-Aldrich; S. aureus, E. coli, P. aeruginosa), flucytosine (Sigma-Aldrich; C. albicans), and econazole (Sigma-Aldrich; A. fumigatus) were used. Suspensions of a starting inoculum of 5 × 10^3 CFU/mL (E. coli, S. aureus, C. albicans, A. fumigatus) and 5 × 10^4 CFU/mL (P. aeruginosa) were prepared in MHB (bacterial species) or RPMI medium (fungal species) and 190 μL was added to the 96-well plates. Plates were incubated for 16 h (E. coli, S. aureus, P. aeruginosa), 24 h (C. albicans), or 48 h (A. fumigatus) at 37°C. After incubation, read-out of the antimicrobial activity was performed using a resazurin assay. Then, 20 μL of a 0.01% (wt/vol) resazurin (Sigma-Aldrich) solution was added to each well and plates were incubated for 15 min (S. aureus), 30 min (E. coli), 45 min (P. aeruginosa), 4 h (C. albicans), or 17 h (A. fumigatus) to allow resazurin reduction to take place. Fluorescence was read using a microplate reader (Telix) at λexcitation = 550 nm and λemission = 590. […] MIC values were determined visually. Medium in the wells with no visual growth was plated on MHA to detect the MBC, defined as ≥3 log reduction compared with the growth control.

S. aureus ATCC 6538 = assay type: cell-based, Staphylococcus aureus; conditions: for IC50: MHB, 37°C, resazurin, 50% growth inhibition; for IC50 / MIC S. aureus ATCC 6538: 16 h; for MIC S. aureus ATCC 6538: determined visually; for MBC S. aureus ATCC 6538: wells without visual growth plated on MHA, ≥3 log reduction vs growth control
Description: as §1

A. fumigatus B42928 = assay type: cell-based, Aspergillus fumigatus; conditions: RPMI, 48 h, 37°C, resazurin
Description: as §1

E. coli ATCC 8739 = assay type: cell-based, Escherichia coli; conditions: for IC50: MHB, 37°C, resazurin; for IC50 / MIC E. coli ATCC 8739: 16 h; for MIC E. coli ATCC 8739: determined visually
Description: as §1

[1] = system: MRC5-SV2 cell line of human, embryonic lung fibroblasts; assay: Cytotoxicity screening of the peptide library; assay type: cell-based; conditions: 72 h, 37°C, resazurin fluorescence
Description: To determine early signs of peptide toxicity, the library was tested against the MRC5-SV2 cell line of human, embryonic lung fibroblasts (Sigma-Aldrich). Peptides were serially diluted in 96-well plates as described earlier at concentrations ranging from 64 μM to 0.25 μM for the first screening, and from 32 μM to 0.016 μM for the independent repeat. Tamoxifen (Sigma-Aldrich) was included as a reference compound. After preparation of the test plates, cell suspension (190 μL) of 1.5 × 10^5 cells/mL in complete minimum essential medium (Gibco) was added to the peptides. Plates were incubated for 72 h at 37°C in a 5% CO2 incubator (Binder). Afterwards, 50 μL of a 0.01% (wt/vol) resazurin (Sigma-Aldrich) solution was added to the wells to detect cell viability.

C. albicans B59630 = assay type: cell-based, Candida albicans; conditions: RPMI, 24 h, 37°C, resazurin
Description: as §1

[2] = repeat 1, 64-0.25 μM, determined visually, 16 h
[3] = repeat 2, 32-0.016 μM, determined visually, 16 h
[4] = repeat 1, plated on MHA, ≥3 log reduction vs growth control
[5] = repeat 2, plated on MHA, ≥3 log reduction vs growth control

Compound | MIC P. aeruginosa ATCC 9027 (P. aeruginosa ATCC 9027; [2]) [µM] | MIC P. aeruginosa ATCC 9027 (P. aeruginosa ATCC 9027; [3]) [µM] | MIC S. aureus ATCC 6538 (S. aureus ATCC 6538; repeat 1, 64-0.25 μM) [µM] | MIC S. aureus ATCC 6538 (S. aureus ATCC 6538; repeat 2, 32-0.016 μM) [µM] | MIC E. coli ATCC 8739 (E. coli ATCC 8739; repeat 1, 64-0.25 μM) [µM] | MIC E. coli ATCC 8739 (E. coli ATCC 8739; repeat 2, 32-0.016 μM) [µM] | MIC P. aeruginosa ATCC 9027 (P. aeruginosa ATCC 9027; ATCC 9027, 16 h) [µM] | MBC P. aeruginosa ATCC 9027 (P. aeruginosa ATCC 9027; [4]) | MBC P. aeruginosa ATCC 9027 (P. aeruginosa ATCC 9027; [5]) [µM] | other results
QLPCDYLSGLGFGEDACNTDCIAKGHKSGFCTGLVCRCRTL [Hill-Def8, Defensin without disulfide bridges] | > 64.00 | > 32.00 | > 64.00 | > 32.00 | > 64.00 | > 32.00 |  |  |  | IC50 (P. aeruginosa ATCC 9027; repeat 1, 64-0.25 μM, 16 h): > 64 µM; IC50 (P. aeruginosa ATCC 9027; repeat 2, 32-0.016 μM, 16 h): > 32 µM; IC50 (S. aureus ATCC 6538; repeat 1, 64-0.25 μM): > 64 µM; IC50 (S. aureus ATCC 6538; repeat 2, 32-0.016 μM): > 32 µM; IC50 (A. fumigatus B42928; repeat 1, 64-0.25 μM): > 64 µM; IC50 (A. fumigatus B42928; repeat 2, 32-0.016 μM): > 32 µM; IC50 (E. coli ATCC 8739; repeat 1, 64-0.25 μM): > 64 µM; IC50 (E. coli ATCC 8739; repeat 2, 32-0.016 μM): > 32 µM; IC50 ([1]; repeat 1, first screening 64-0.25 μM): > 64 µM; IC50 ([1]; repeat 2, independent repeat 32-0.016 μM): > 32 µM; IC50 (C. albicans B59630; repeat 1, 64-0.25 μM): > 64 µM; IC50 (C. albicans B59630; repeat 2, 32-0.016 μM): > 32 µM
SWFKKVFKPVEKVGQRVRDAGIQGVAIAQQGANVLATARGGPPH-NH2 [Hill-Cec5] |  |  |  |  |  |  |  |  |  | MBC P. aeruginosa ATCC 9027 (P. aeruginosa ATCC 9027; ATCC 9027, 16 h): 32.00 µM; MBC E. coli ATCC 8739 (E. coli ATCC 8739; ATCC 8739, 16 h): 0.50 µM
GWWKRVFKPVEKLGQRVRDAGIQGLEIAQQGANVLATVRGGPPQQ-NH2 [Hill-Cec9] |  | 2.00 | > 64.00 | > 32.00 |  |  | 1.00 | static | 2.00 | 
CC[C@H](C)[C@H](NC(=O)[C@H](CS)NC(=O)[C@H](Cc1c[nH]cn1)NC(=O)[C@H](C)NC(=O)[C@H](C)NC(=O)[C@H](CS)NC(=O)[C@H](C)NC(=O)[C@H](C)NC(=O)[C@H](Cc1c[nH]cn1)NC(=O)CNC(=O)[C@@H](NC(=O)[C@H](CCCCN)NC(=O)[C@H](Cc1ccccc1)NC(=O)[C@@H]1CCCN1C(=O)[C@H](CO)NC(=O)[C@H](CC(C)C)NC(=O)[C@H](CC(C)C)NC(=O)[C@H](CC(=O)O)NC(=O)[C@H](CS)NC(=O)[C@@H](NC(=O)[C@H](C)N)[C@@H](C)O)C(C)C)C(=O)N[C@@H](C)C(=O)N[C@@H](CCCNC(=N)N)C(=O)NCC(=O)N[C@@H](CCCCN)C(=O)N[C@@H](CCCNC(=N)N)C(=O)NCC(=O)NCC(=O)N[C@@H](Cc1c[nH]c2ccccc12)C(=O)N[C@@H](CS)C(=O)N[C@@H](CC(=O)O)C(=O)N[C@@H](CCCCN)C(=O)N[C@@H](CCCNC(=N)N)C(=O)N[C@@H](C)C(=O)N[C@H](C(=O)N[C@@H](CS)C(=O)N[C@@H](CC(N)=O)C(=O)N[C@@H](CS)C(=O)N[C@@H](CCCNC(=N)N)C(=O)N[C@@H](CCCCN)C(=O)O)C(C)C [Hill-Def2a] (H-ATCDLLSPFKVGHAACAAHCIARGKRGGWCDKRAVCNCRK-OH; N-terminus and C-terminus assumed) | > 64.00 | > 32.00 | 0.25 (≈ 1.07 µg/mL) | 2.00 (≈ 8.55 µg/mL) | > 64.00 | > 32.00 |  |  |  | MBC S. aureus ATCC 6538 (S. aureus ATCC 6538; repeat 1): static; MBC S. aureus ATCC 6538 (S. aureus ATCC 6538; repeat 2): static
KSWWKKVFKPVERAGQRIRDASIKGLAVAQQGANVLSTIRGGPPVVAPPPQV-NH2 [Hill-Cec13] |  | 2.00 | > 64.00 | > 32.00 |  |  | 1.00 | 64.00 µM | 2.00 | 

Source: article PMC8729770, “In Vitro Evaluation of Antimicrobial Peptides from the Black Soldier Fly (Hermetia Illucens) against a Selection of Human Pathogens” (Microbiology Spectrum, 2022)
